Results reported in patent US20030176431A1 (priority 1997, published 2003).
Read-outs that look alike come from different tables or passages of the source.

Assays:
[1] = system: female Swiss Webster mice; conditions: mouse, in vivo, po
Experimental: (§1) Doses above this level are overtly toxic or fatal to the animal.
(§2) To assess the safety of compounds of the invention, the methyl cellulose formulations of compounds of the invention were administered to laboratory mice. A single dose of each compound in a 0.5 mL volume was administered by oral gavage to groups of test animals, each consisting of five female Swiss Webster mice 8 to 9 weeks of age and weighing 25 to 30 g. The MTD was determined by administering increasing doses of compound and assessing animal survival over a 7 day period.

Coxsackie B3 virus = test: microbe, parasite or virus in culture; format: cell-based
[2] = system: Respiratory syncytial virus; test: microbe, parasite or virus in culture; format: cell-based; conditions: read-out: IC50 Respiratory syncytial virus
normal cells = conditions: highest concentration giving optical density ≧75% of control, MTT, 68 hours
Experimental: This assay measures cell viability, and therefore cytotoxicity, by quantitatively detecting the in situ reduction of 3-(4,5-dimethylthiazol-2-yl)-2,5-diphenyltetrazolium bromide (MTT) by viable cells. Cells are seeded in 96-well plates in DMEM containing 2% horse serum at a density of 4×10^3 cells per well. After incubation for 4 hours at 37° C. and 5% CO2, 2-fold serial dilutions of compound in 1% DMSO (or solvent alone) are added to quadruplicate wells and the plates are incubated for an additional 68 hours at 37° C. and 5% CO2, which is equivalent to 3 to 4 cell doublings. The culture medium is removed, and the cells are treated with 1 mg/ml of MTT in phosphate-buffered saline, pH 7.2 for 4 hours at 37° C. and 5% CO2. After removal of the unreduced MTT, the reduced blue formazan crystals produced by the viable cells are solubilized by the addition of 0.04N HCl in isopropanol. The absorbance at 570 nm (A570) of each well is read using a suitable microplate reader. Cell viability is expressed as the percentage of optical density for compound-treated cells relative to the optical density of solvent alone-treated control wells. The highest compound concentration resulting in an optical density of ≧75% of the control is represented as the cellular cytotoxicity value (CC75).

[3] = system: Herpes simplex virus type 2; test: microbe, parasite or virus in culture; format: cell-based
BVDV-infected MDBK cells = format: cell-based, bovine viral diarrhea virus; conditions: read-out: IC50 evaluated with the spiked mouse reference serum
Influenza A virus = test: microbe, parasite or virus in culture; format: cell-based; conditions: read-out: IC50 Influenza A virus
[4] = system: female Swiss Webster mice; test: Animal safety study: maximum tolerated dose after single oral dose; conditions: mice; for MTD: single oral dose, survival over 7 days
Experimental: as §1, §2

BVDV (strain NADL) = test: Cell culture assay for inhibition of BVDV replication (cytopathic effect, crystal violet); format: cell-based, bovine viral diarrhea virus
Text: The replication of many viruses may be quantitatively assessed in the laboratory in various cell or tissue culture systems. Such in vitro culture methodologies are available and useable by those trained in the art for the propagation and quantitative measurement of the replication of several pestiviruses and flaviviruses. The following procedure was used for the in vitro quantitative measure of BVDV replication.
Using the procedure described in this example, compounds of the invention were evaluated for their ability to inhibit the replication of the virus in cell culture. By adding compounds at various concentrations to the culture medium, a dose response effect of the compound on virus replication can be determined. A useful quantitative measure of the inhibition of BVDV replication in this assay is the concentration of the compound at which virus replication in cell culture is inhibited by 50% in comparison to that observed in the absence of the compound (50% Inhibitory Concentration, IC50).
Anti-pestivirus compounds of the invention were screened for antiviral activity against BVDV on Madin Darby bovine kidney (MDBK) cells in a cell culture assay. Standard 96-well culture plates were seeded with 1 to 2×10^4 MDBK cells in 200 uL of Dulbeccos-modified Eagle's medium (DMEM) supplemented with 5% horse serum so as to obtain a monolayer of cells at 60% confluence. Six hours later, the medium was removed and the cell monolayers in each well were infected with 150 uL solution of BVDV (strain NADL) (M. S. Collett et al., Virology 165:191-199 (1988)) in DMEM supplemented with 2% horse serum previously titrated to yield 85-100% destruction (cytopathic effect) of the cell monolayer 36-40 hours after infection.
To determine the IC50 values of compounds tested in this experiment, ten serial 2-fold dilutions of test compounds were prepared in DMSO solvent at a compound concentration 200 times that desired for the highest final test concentration. The test compound-DMSO solutions were diluted 50-fold into DMEM containing 2% horse serum. Fifty uL of this dilution was added to the 150 uL volume present in the wells of the virus-infected plate, yielding a final DMSO concentration in each well of 0.5%. Virus control (VC; no test compound) and cell culture control (CC; no virus and no test compound) wells were included on each 96-well plate. Assay points were conducted in replicate, usually in quadruplicate. Plates were then incubated at 37° C. in a humidified atmosphere containing 2.5% carbon dioxide for 36-40 hours. At the end of the incubation period, 100 uL of a 5% solution of glutaraldehyde in water was added to each well and the wells were incubated at room temperature for 1 hour. The fixative was removed, and the cells were stained with a 0.1% solution of crystal violet in water for 15-30 minutes. After rinsing and drying the plates, the optical density of the wells was measured at 570 nm (OD570).
To determine IC50 values for the test compounds, the mean value of the OD570 readings of the virus control wells (VC) on a plate was subtracted from the OD570 readings of all wells on that plate. The IC50 values were then calculated according to the following formula: [formula]
where Y represents the mean OD570 reading of the cell control wells (CC) divided by 2; B represents the mean OD570 reading of wells of the compound dilution nearest to and below Y; A represents the mean OD570 reading of wells of the compound dilution nearest to and above Y; L represents the compound concentration at B; and H represents the compound concentration at A.

[5] = mouse, in vivo, po
[6] = Animal safety study: maximum tolerated dose after single oral dose; conditions: female, Swiss Webster, mouse, in vivo, po
Experimental: as §1, §2

[7] = single oral gavage dose 21 mg/kg
[8] = single oral gavage dose 71 mg/kg
[9] = single oral gavage dose 214 mg/kg
[10] = single oral gavage dose 710 mg/kg
[11] = Bovine viral diarrhea virus isolates and strains, BVDV strain NADL on MDBK cells, 36-40 hours, read-out: IC50
[12] = Enterovirus B, B3, read-out: IC50 Coxsackie B3 virus
[13] = human respiratory syncytial virus
[14] = Human alphaherpesvirus 2, read-out: IC50 Herpes simplex virus type 2
[15] = Bovine viral diarrhea virus isolates and strains, BVDV, read-out: IC50 determined in cell culture
[16] = Bovine viral diarrhea virus isolates and strains, Table 3 specificity panel, BVDV, read-out: IC50 BVDV
[17] = Bovine viral diarrhea virus isolates and strains, antiviral IC50 against BVDV, Table 4, read-out: IC50

## CCCN(CCC)CCSc1nnc2c(n1)[nH]c1ccccc12 [Example 1, 3-[((2-dipropylamino)ethyl)thio]-5H-1,2,4-triazino[5,6-b]indole]
[1]
  MTD: greater than or equal to the highest dose tested
Coxsackie B3 virus; read-out: IC50 Coxsackie B3 virus
  IC50: > 50000 nM
[2]
  IC50: > 50000 nM
Normal cells
  CC75: 2000 nM
[3]; read-out: IC50 Herpes simplex virus type 2
  IC50: > 50000 nM
BVDV-infected MDBK cells
  IC50: 3.5 nM
Influenza A virus
  IC50: > 50000 nM
[4]
  MTD: ≧710 mg/kg
[4]; [7]
  #Survivors (alive at Day 7): 5/5
[4]; [8]
  #Survivors (alive at Day 7): 5/5
[4]; [9]
  #Survivors (alive at Day 7): 5/5
[4]; [10]
  #Survivors (alive at Day 7): 5/5
BVDV (strain NADL); read-out: IC50
  IC50: 6 nM
BVDV (strain NADL); read-out: IC50 BVDV
  IC50: 6 nM
BVDV (strain NADL); read-out: IC50 determined in cell culture
  IC50: 6 nM
[5]; 21 mg/kg
  Concentration Of Drug Measured In Serum Post Drug Administration 30 Min.: 100 nM
  Concentration Of Drug Measured In Serum Post Drug Administration 90 Min.: 70 nM
[5]; 214 mg/kg
  Concentration Of Drug Measured In Serum Post Drug Administration 30 Min.: 1100 nM
  Concentration Of Drug Measured In Serum Post Drug Administration 90 Min.: 600 nM

## CCN(CC)CC(C)Sc1nnc2c(n1)[nH]c1ccccc12 (stereo not shown) [Example 2]
BVDV (strain NADL); [11]
  IC50: 300 nM

## CC(C)N(CCSc1nnc2c(n1)[nH]c1ccccc12)C(C)C [Example 3]
BVDV (strain NADL); [11]
  IC50: 3100 nM

## CC(CN(C)C)Sc1nnc2c(n1)[nH]c1ccccc12 (stereo not shown) [Example 4]
BVDV (strain NADL); [11]
  IC50: 3700 nM

## CN(C)CCSc1nnc2c(n1)[nH]c1ccccc12 [Example 5]
BVDV (strain NADL); [11]
  IC50: 5500 nM

## c1ccc2c(c1)[nH]c1nc(SCCN3CCCC3)nnc12 [Example 6]
BVDV (strain NADL); [11]
  IC50: 500 nM

## c1ccc2c(c1)[nH]c1nc(SCCN3CCCCC3)nnc12 [Example 7]
Coxsackie B3 virus; [12]
  IC50: > 50000 nM
[2]; [13]
  IC50: > 50000 nM
Normal cells
  CC75: 12500 nM
[3]; [14]
  IC50: > 50000 nM
Influenza A virus; Influenza A virus
  IC50: > 50000 nM
[4]
  MTD: greater than or equal to the highest dose tested
[4]; [7]
  #Survivors (alive at Day 7): 5/5
[4]; [8]
  #Survivors (alive at Day 7): 5/5
[4]; [9]
  #Survivors (alive at Day 7): 5/5
[4]; [10]
  #Survivors (alive at Day 7): 5/5
[6]
  MTD at 7 day: ≥ 710 mg/kg
BVDV (strain NADL); [11]
  IC50: 60 nM
BVDV (strain NADL); [15]
  IC50: 60 nM
BVDV (strain NADL); [16]
  IC50: 60 nM
BVDV (strain NADL); [17]
  IC50: 60 nM
[5]; Swiss Webster, 21 mg/kg
  Concentration Of Drug Measured In Serum Post Drug Administration 30 Min.: <1500 nM
  Concentration Of Drug Measured In Serum Post Drug Administration 90 Min.: <1500 nM
[5]; Swiss Webster, 214 mg/kg
  Concentration Of Drug Measured In Serum Post Drug Administration 30 Min.: 46000 nM
  Concentration Of Drug Measured In Serum Post Drug Administration 90 Min.: 36200 nM

## c1ccc2c(c1)[nH]c1nc(SCCCN3CCCCC3)nnc12 [Example 8]
BVDV (strain NADL); [11]
  IC50: 4400 nM

## c1ccc2c(c1)[nH]c1nc(SCCN3CCCCCC3)nnc12 [Example 9]
Coxsackie B3 virus; [12]
  IC50: > 50000 nM
[2]; [13]
  IC50: > 50000 nM
Normal cells
  CC75: 25000 nM
[3]; [14]
  IC50: > 50000 nM
Influenza A virus; Influenza A virus
  IC50: > 50000 nM
[4]; [7]
  #Survivors (alive at Day 7): 5/5
[4]; [8]
  #Survivors (alive at Day 7): 5/5
[4]; [10]
  #Survivors (alive at Day 7): 0/5
[6]
  MTD at 7 day: 214 mg/kg
BVDV (strain NADL); [11]
  IC50: 30 nM
BVDV (strain NADL); [15]
  IC50: 30 nM
BVDV (strain NADL); [16]
  IC50: 30 nM
BVDV (strain NADL); [17]
  IC50: 30 nM
[5]; Swiss Webster, 21 mg/kg
  Concentration Of Drug Measured In Serum Post Drug Administration 30 Min.: 700 nM
  Concentration Of Drug Measured In Serum Post Drug Administration 90 Min.: <200 nM
[5]; Swiss Webster, 214 mg/kg
  Concentration Of Drug Measured In Serum Post Drug Administration 30 Min.: 19600 nM
  Concentration Of Drug Measured In Serum Post Drug Administration 90 Min.: 8500 nM

## c1ccc2c(c1)[nH]c1nc(SCc3ccncc3)nnc12 [Example 10]
BVDV (strain NADL); [11]
  IC50: 4000 nM

## c1ccc2c(c1)[nH]c1nc(SCCN3CCOCC3)nnc12 [Example 11]
BVDV (strain NADL); [11]
  IC50: 1200 nM

## CCCCN(CCCC)CCSc1nnc2c(n1)[nH]c1ccccc12 [Example 12]
BVDV (strain NADL); [11]
  IC50: 10 nM

## COc1cc2oc(=O)cc(CSc3nnc4c(n3)[nH]c3ccccc34)c2cc1OC [Example 13]
BVDV (strain NADL); [11]
  IC50: 1700 nM

## N#CC1CCN(CCSc2nnc3c(n2)[nH]c2ccccc23)CC1 [Example 14]
BVDV (strain NADL); [11]
  IC50: 1800 nM

## CCC1CCN(CCSc2nnc3c(n2)[nH]c2ccccc23)CC1 [Example 15]
BVDV (strain NADL); [11]
  IC50: > 3000 nM

## c1ccc2c(c1)OCC(CSc1nnc3c(n1)[nH]c1ccccc13)O2 (stereo not shown) [Example 16]
BVDV (strain NADL); [11]
  IC50: 2500 nM

## Clc1cc(CSc2nnc3c(n2)[nH]c2ccccc23)cc(Cl)n1 [Example 17]
BVDV (strain NADL); [11]
  IC50: 1400 nM

## c1ccc2c(c1)[nH]c1nc(SCCCCOC3CCCCO3)nnc12 (stereo not shown) [Example 18]
BVDV (strain NADL); [11]
  IC50: > 3000 nM

## CCCN(CCC)CCSc1nnc2c(n1)[nH]c1ccccc12 [Example 19]
BVDV (strain NADL); [11]
  IC50: 2 nM

## Cc1ccc2[nH]c3nc(SCCN4CCCCCC4)nnc3c2c1 [Example 20]
BVDV (strain NADL); [11]
  IC50: 7 nM

## Brc1ccc2[nH]c3nc(SCCN4CCCCC4)nnc3c2c1 [Example 21]
BVDV (strain NADL); [11]
  IC50: 36 nM

## Brc1ccc2[nH]c3nc(SCCN4CCCCCC4)nnc3c2c1 [Example 22]
BVDV (strain NADL); [11]
  IC50: 42 nM

## Fc1ccc2[nH]c3nc(SCCN4CCCCCC4)nnc3c2c1 [Example 23]
BVDV (strain NADL); [11]
  IC50: 14 nM

## Cc1ccc2[nH]c3nc(SCCN4CCCCC4)nnc3c2c1 [Example 24]
BVDV (strain NADL); [11]
  IC50: 13 nM

## COc1ccc2[nH]c3nc(SCCN4CCOCC4)nnc3c2c1 [Example 25]
BVDV (strain NADL); [11]
  IC50: 2000 nM

## CCCN(CCC)CCSc1nnc2c(n1)[nH]c1ccc(N)cc12 [Example 26]
BVDV (strain NADL); [11]
  IC50: 10 nM

## Fc1ccc2[nH]c3nc(SCCN4CCCCC4)nnc3c2c1 [Example 27]
BVDV (strain NADL); [11]
  IC50: 21 nM
